In assay [1] the target is T1, PSA (Homo sapiens, UniProt P07288).
T1 construct: from tissue; host or cells: pooled human seminal fluid
The experiment in a line: Stimulation of PSA activity by peptides, chromogenic substrate. As to conditions: for Emax / EC50: 350 nM PSA preincubated with 0.35–350 µM peptide 30 min room temperature, 0.2 mM chromogenic substrate S-2586, mean ± SD, n = 2; for Emax: read-out: Stimulation (maximal stimulation capacity as compared to PSA alone, Vmax (peptide+PSA)/V(PSA)); for EC50: read-out: [peptide]½Vmax (peptide concentration with half-maximal stimulation). In kind it is biochemical. As to the method:
(§1) The major form of active PSA (isoform PSA-B) was purified from pooled human seminal fluid by immunoaffinity chromatography followed by anion exchange chromatography. Semenogelins I and II were isolated from human seminal fluid as previously described, but instead of alkylating the proteins, the reducing agent 30 mM dithiothreitol (Sigma-Aldrich, St. Louis, MO) was included in all buffers during purification. Semenogelins were stored in the purification buffer containing 2 M urea and 5 mM EDTA at −70°C. Prior to cleavage by PSA, the buffer was exchanged to 50 mM Tris, pH 7.7, containing 0.15 M NaCl (TBS), with Amicon Ultra centrifugal filter units (MW cut-off 30 kDa) (Millipore, Cork, Ireland) at 4°C, and protein concentration was determined by measuring absorbance at 280 nm.
(§2) Peptides that bind to PSA and stimulate its activity have previously been identified by phage display. […] The purity of the peptides as determined by HPLC was over 95% in all batches. We have not observed any significant variation in the capacity of the peptides to stimulate the PSA activity between different peptide batches and suppliers.
(§3) The proteolytic activity of PSA towards small peptide substrates was compared with two different substrates. Both assays were performed in 96-well microplates (PerkinElmer, Turku, Finland) with duplicates in two separate experiments (n = 2) in TBS buffer containing 1 g/l bovine serum albumin (0.1% BSA-TBS). The chromogenic chymotrypsin substrate S-2586 (MeO-Suc-Arg-Pro-Tyr-pNA·HCl) (Chromogenix Instrumentation Laboratory, Milan, Italy) at 0.125–5 mM concentration or 0.125–2 mM fluorogenic PSA substrate 4-morpholinecarbonyl-HSSKLQ-AMC (7-amido-4-methylcoumarin) (custom peptide from JPT Peptide Technologies GmbH, Berlin, Germany) were added to the wells together with 175 nM (5 µg/ml) PSA. The absorbance was measured at 405 nm immediately and at 5 min intervals for 30 min and fluorescence at 355/460 nm (excitation/emission) after 10 min, 20 min, 40 min, 1 h, 2 h and 4 h incubation at room temperature with a Victor 1420 Multilabel plate reader (PerkinElmer). In the fluorogenic assays all wells contained 5% dimethyl sulfoxide (DMSO).
(§4) The effect of the PSA-stimulating peptides on the activity of PSA was characterized with chromogenic and fluorogenic substrates in two (n = 2) and three (n = 3) separate experiments, respectively. PSA (350 nM) was first preincubated with peptides (0.35–350 µM) for 30 min at room temperature. Then 0.2 mM chromogenic or 0.3 mM fluorogenic substrate was added and absorbance or fluorescence was measured as described above. Fluorogenic assays with the peptides were performed in black 384-well microplates (Corning Inc., Corning, NY) and all wells contained 0.75% DMSO. The velocity of the reaction (V) was calculated from the change of absorbance/min or fluorescence/min at the linear phase of the reaction and converted to molar concentration as described above. Vmax (peptide + PSA), i.e., the maximal velocity of the reaction with increasing peptide concentrations and given PSA and substrate concentrations, was determined using SigmaPlot, fitting the data to f = y0+a*(1−exp(−b*x)) using non-linear regression. The maximal stimulatory capacity of the peptide, Vmax (peptide+PSA)/V(PSA), was calculated. The peptide concentrations at which the stimulation of PSA was half of the maximum ([peptide]½Vmax) and at which PSA activity was increased two-fold when compared to PSA alone ([peptide]2V) were also determined.

The target of assay [2] is T1, PSA. Kind of assay: Stimulation of PSA activity by peptides, fluorogenic substrate. In kind it is biochemical. As to conditions: 350 nM PSA preincubated with 0.35–350 µM peptide 30 min room temperature, 0.3 mM fluorogenic substrate, 0.75% DMSO, mean ± SD, n = 3; for Emax: read-out: Stimulation (maximal stimulation capacity as compared to PSA alone, Vmax (peptide+PSA)/V(PSA)); for EC50: read-out: [peptide]½Vmax (peptide concentration with half-maximal stimulation). Here is the method: as §1, §2
The proteolytic activity of PSA towards small peptide substrates was compared with two different substrates. Both assays were performed in 96-well microplates (PerkinElmer, Turku, Finland) with duplicates in two separate experiments (n = 2) in TBS buffer containing 1 g/l bovine serum albumin (0.1% BSA-TBS). […] The absorbance was measured at 405 nm immediately and at 5 min intervals for 30 min and fluorescence at 355/460 nm (excitation/emission) after 10 min, 20 min, 40 min, 1 h, 2 h and 4 h incubation at room temperature with a Victor 1420 Multilabel plate reader (PerkinElmer). […]
as §4, with “PSA (350 nM) was first preincubated with peptides (0.35–350 µM) for 30 min at room temperature.” left out, “Fluorogenic assays with the peptides were performed in black 384-well microplates (Corning Inc., Corning, NY) and all wells contained 0.75% DMSO.” left out

For assay [3], the target named is T1, PSA. The experiment in a line: Enzyme kinetics of PSA with fluorogenic peptide substrate. In kind it is biochemical. Here is the method: as §1, §3
The maximum velocity of the reaction (Vmax) and the Michaelis constant (Km), i.e., substrate concentration at which the reaction rate is half of the maximum, were evaluated for PSA with both peptide substrates using Sigma Plot 11 with the Enzyme Kinetics Module 1.3 (SYSTAT Software, Inc., San Jose, CA) and the catalytic constant (kcat), i.e., the number of substrate molecules converted to product per time unit, was calculated from the equation kcat = Vmax/[PSA]. The absorbance was converted to molar concentration with the Lambert-Beer equation (A = εcl), using the molar absorptivity of pNA (εpNA = 8800 M^−1cm^−1). Fluorescence (counts per second, cps) was transformed to molar concentrations with SigmaPlot by means of a standard curve for 7-amido-4-methylcoumarin (AMC, Sigma-Aldrich).

Another assay deals with HUVECs. Kind of assay: HUVEC tube formation assay on Matrigel. In kind it is cell-based, human. Here is the method:
Human umbilical vein endothelial cells (HUVECs) were isolated from umbilical cord veins and grown in Endothelial Cell Growth Medium (Promocell, Heidelberg, Germany) with 2% Ultroser G BioSepra serum substitute (PALL BioSepra, Cergy, France) and growth factors EGF and bFGF. For tube formation, HUVECs were grown on top of Matrigel (BD Biosciences) as described previously, [29].
To study the effect of PSA-cleaved protein fragments, 0.08 µM nidogen-1 or 0.4 µM galectin-3 (10 µg/ml each) were first incubated with 1 µM PSA for 24 h at 37°C in PBS (Lonza). Then PSA activity was blocked by one-hour incubation at room temperature with 2 µM monoclonal antibody 5C7 [38]. The mixture containing nidogen-1 or galectin-3 fragments with PSA blocked by antibody or the same amount of intact nidogen-1 or galectin-3 were added together with the cells onto gelled Matrigel and the cells were allowed to form tubular networks for 20 h. Control wells contained either PBS or 1 µM PSA. After overnight incubation, cell culture medium was collected from PBS and PSA control wells for SDS-PAGE and Western blotting. Images of tubular networks (100×magnification) were taken using an Axiovert 200 inverted light microscope connected to an AxioCam digital camera and visualized by AxioVision software (all from Zeiss, Göttingen, Germany).

The next assay concerns IGFBP-3. Kind of assay: Immunofluorometric assay of intact IGFBP-3 after incubation with PSA and peptides. The class given is biochemical, human. As to conditions: 0.2 µM PSA, 2.2 µM IGFBP-3, 37°C, TBS; 22 h in text (24 h in method), n = 2. As to the method: To study the degradation of IGFBP-3 by PSA, we used a sandwich-type immunofluorometric assay (IFMA) that measures only intact IGFBP-3, but not that cleaved by PSA [43], [44]. […] After incubation, the samples were diluted 1∶1000 in IFMA assay buffer and IGFBP-3 concentrations were measured as previously described,[44].

The test system of another assay is plasminogen. The experiment in a line: Plasminogen cleavage control with MMP-3. The class given is biochemical, human. The conditions noted are these: 1 µM MMP-3 or PSA, 1 µM plasminogen, 37°C, 22 h, TBS. As to the method:
(§5) Protein LoBind tubes (Eppendorf AG, Hamburg, Germany) were used in all protein degradation experiments.
(§6) PSA (0.2–1 µM) and 0.5–1 µM of each protein substrate were incubated at 37°C for 22 h in TBS buffer. During the incubation, samples of 15 µl were taken at different time points: 0 min, 10 min, 30 min, 2 h, 5 h and 22 h, and stored at −20°C before further analysis.

Assay [4] has as its target T1, PSA. Kind of assay: Proteolytic cleavage of protein substrates by PSA (SDS-PAGE, silver staining). In kind it is biochemical. As to conditions: 0.2 µM PSA, 1 µM substrate, TBS, 37°C; disappearance of full-length band. Here is the method: as §1, §5, §6
Immediately after each incubation, reducing 4× SDS-loading buffer (8% SDS), containing 1 M β-mercaptoethanol or 75 mM dithiothreitol, was added to each sample and proteins were denatured at 70°C for 10 min. The samples were immediately analyzed by SDS-PAGE or frozen at −20°C. Frozen samples were heated again at 70°C before loading on the gel. The cleavage of protein substrates by PSA, i.e., the disappearance of the full-length protein bands, was quantified from scanned images of silver stained gels by the measurement of relative optical densities of the protein bands using ImageJ [40]. […]
Proteins were visualized either by silver staining or Western blotting. […] After 30 min incubation in 0.2% AgNO3, the gel was rinsed briefly with water and proteins were detected with development solution, containing 700 µl/l of 37% formaldehyde, 0.001% sodium thiosulfate and 3% anhydrous Na2CO3. […]

In assay [5] the target is T1, PSA. The experiment in a line: Surface plasmon resonance binding of peptides to PSA. The conditions noted are these: SPR, peptide 1.2–600 µM, PBS pH 7.4, 25°C. In general terms: In SPR one partner is held on a chip, and binding of the other changes the refractive index at the surface.
Method: The binding kinetics and affinity of the peptides stimulating the activity of PSA were studied by surface plasmon resonance (SPR) on a Biacore T100 instrument using Biacore T100 Control Software 2.0.3 (both from GE Healthcare, Uppsala, Sweden). PSA (20 µg/ml, 0.7 µM) and α-chymotrypsin (20 µg/ml, 0.8 µM) were covalently immobilized on the Series S Sensor Chip CM5 (GE Healthcare) by using amine coupling in 10 mM sodium acetate buffer, pH 5.0. The immobilization levels varied in different experiments between 2000–3900 resonance units (RU) for PSA and 1400–2500 RU for chymotrypsin. Chymotrypsin was used as a reference for PSA, i.e., the binding of peptides to the chymotrypsin surface was subtracted as a non-specific interaction from the binding of peptides to the PSA surface in all measurements.
Binding to PSA was studied at various peptide concentrations (1.2–600 µM) in phosphate buffered saline (PBS), pH 7.4 (Lonza, Verviers, Belgium), containing 6.7 mM PO4 and 0.15 M NaCl, with a flow rate of 40 µl/min at 25°C. Contact time of the peptides with PSA was 60 s and dissociation time 180 s. In all other steps except the peptide binding the running buffer was supplemented with 0.005% surfactant P20 (GE Healthcare). The chip was washed after each measurement cycle with the running buffer, which removed all peptides. The binding data were analyzed using Biacore T100 Evaluation software 2.0.3. […]

This is an account of results in article PMC4169579, “Proteolytic Activity of Prostate-Specific Antigen (PSA) towards Protein Substrates and Effect of Peptides Stimulating PSA Activity” (PLoS ONE, 2014).

Positions of bridges follow the written chain, without caps; N, C: chain ends. Residues, ends and D or L forms follow the SMILES beside them. No end group written: not given here.

A word on the kcat: it is the maximal rate divided by the concentration of active sites. In general, Km refers to the substrate concentration at which the rate is half of its maximum.

T1 sequence (P07288 25-261): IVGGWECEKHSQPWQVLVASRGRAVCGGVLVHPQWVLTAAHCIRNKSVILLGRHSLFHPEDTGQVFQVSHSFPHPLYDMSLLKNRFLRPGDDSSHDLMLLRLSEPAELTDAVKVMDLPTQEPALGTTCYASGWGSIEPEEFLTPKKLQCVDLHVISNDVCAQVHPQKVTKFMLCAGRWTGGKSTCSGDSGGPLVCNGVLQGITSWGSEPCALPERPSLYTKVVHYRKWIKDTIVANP

In the case of `CC(C)C[C@@H]1NC(=O)[C@H](Cc2ccc(O)cc2)NC(=O)[C@H](CC(=O)O)NC(=O)[C@H](Cc2ccc(O)cc2)NC(=O)[C@H](CC(N)=O)NC(=O)[C@H](Cc2c[nH]cn2)NC(=O)[C@H](C)NC(=O)[C@H](Cc2ccccc2)NC(=O)[C@H](C(C)C)NC(=O)[C@@H](N)CSSC[C@@H](C(N)=O)NC(=O)[C@H](C(C)C)NC1=O` [B2-NH2] (H-CVFAHNYDYLVC-NH2; disulfide 1-12), at PSA [1], the Emax was 400 ± 14% and the EC50 is 5.13 ± 1.43 µM. For the same molecule, on PSA [2], the Emax is 391 ± 11% and the EC50 came out at 4.78 ± 1.55 µM.

As for “4-morpholinecarbonyl-HSSKLQ-AMC [Fluorogenic substrate, fluorogenic PSA substrate, AMC = 7-amido-4-methylcoumarin]”, at PSA [3] (compared to that reported by Denmeade et al. [36]), the “kcat/Km compared to literature” value was “about five-fold higher”. For the same molecule, the kcat on PSA [3] (kcat = Vmax/[PSA], substrate 0.125–2 mM, 175 nM PSA, 0.1% BSA-TBS, 5% DMSO, room temperature, mean ± SD of two experiments) was determined as 0.19 ± 0.09 s⁻¹. In addition, the Km at PSA [3] (substrate 0.125–2 mM, 175 nM PSA, 0.1% BSA-TBS, 5% DMSO, 355/460 nm, room temperature, 10 min to 4 h, mean ± SD of two experiments) came out at 1.58 ± 0.04 mM. In addition, the kcat/Km on PSA [3] (substrate 0.125–2 mM, 175 nM PSA, 0.1% BSA-TBS, 5% DMSO, room temperature, mean ± SD of two experiments) amounted to 122.0±59.4 s^−1M^−1.

As to “PSA: major form of active PSA (isoform PSA-B) purified from pooled human seminal fluid”, the tube formation result in the assay with HUVECs (1 µM PSA, 20 h, HUVECs on Matrigel) was “reduced tube formation”. The “effect of PSA pre-incubation of gelled Matrigel on tube formation” value with HUVECs (overnight pre-incubation of Matrigel with PSA, then PSA inhibited with antibody, Mattsson et al. unpublished data) was “did not inhibit endothelial cell tube formation”. In addition, in the assay on IGFBP-3, the “decrease of the content of intact IGFBP-3” value was found to be 50%. Besides, in the assay on plasminogen, the cleavage of plasminogen result was “but not PSA, cleaved 1 µM plasminogen”.

Take `CC[C@H](C)[C@@H]1NC(=O)[C@@H]2CSSC[C@H](NC(=O)[C@H](Cc3c[nH]cn3)NC(=O)[C@H](Cc3c[nH]cn3)NC(=O)[C@H](CCC(=O)O)NC1=O)C(=O)N[C@@H](Cc1c[nH]c3ccccc13)C(=O)N[C@@H]([C@@H](C)O)C(=O)N[C@H](C(=O)O)CSSC[C@H](N)C(=O)N[C@@H](C(C)C)C(=O)N[C@@H](C)C(=O)N[C@@H](Cc1ccc(O)cc1)C(=O)N2` [C4] (H-CVAYCIEHHCWTC-OH; disulfide 1-13, 5-10): at PSA [1], the Emax was found to be 785 ± 7% and the EC50 was found to be 5.62 ± 2.17 µM. Also, at PSA [2], the Emax amounted to 610 ± 8% and the EC50 was 3.72 ± 0.5 µM.

Regarding fibronectin, the “time for degradation of 50% of the protein” value at PSA [4] turned out to be 17 h.

Regarding “IGFBP-3: recombinant human insulin-like growth factor-binding protein-3”, the “time for degradation of 50% of the protein” value with PSA [4] was 22 h.

In the case of “CVFAHNADALVC (disulfide 1-12 (inferred)) [B2-NH2-control]”, the “binding to PSA” value on PSA [5] is “All peptides, except the inactive B2-NH2-control peptide, bound to PSA”. The “Stimulation of PSA activity (summary in words)” value on PSA [1] (towards chromogenic and fluorogenic peptide substrates (Figure 1, Table 2), B2 and B2-NH2-control: Figure 1A (chromogenic)) is “did not stimulate PSA activity at all”.
